≈ marks a conversion by molar mass, not a printed value.
Key:
E. coli ATCC25922 [1] = experiment: MIC assay of crude extracts, relative activity vs darobactin A; assay type: cell-based, Escherichia coli; conditions: crude extract, relative to darobactin A, amount from LC-MS AUC
Description: (§1) Crude extracts of darobactin derivatives obtained by the heterologous expression and separation protocol described above were tested for their activity against exemplified Gram-negative bacteria with a minimum inhibitory concentration (MIC) assay. The presence of darobactin derivatives in the crude extracts was verified by checking the expected masses via LC-MS.
(§2) For the MIC assay, 10 μl of crude extract of each test sample, diluted in 50% methanol/H2O, was added each into a well of the first row of a 96 well plate. […] Then, 75 μl of cation-adjusted Mueller-Hinton broth medium was added to each well and the samples contained in the first row were mixed with the 75 μl medium/extract mixture. Starting from the […] mixtures in the first row, serial dilutions of the respective mixtures were prepared in corresponding subjacent rows of the 96 well plate. Bacterial suspensions of each strain to be tested were diluted 1:100 in cation-adjusted Mueller-Hinton broth to obtain a final inoculum of approximately 10^6 CFU/mL. 75 μl of each bacterial suspension to be tested was added to the respective crude extract samples in the wells of the 96 well plate and the plates were incubated at either 30° C. or 37° C. for at least 24 h under static conditions. Plates were then checked visually and MIC was determined as lowest concentration where no visible growth was observed. In order to quantify the activity of the obtained darobactin derivatives, their relative activity in relation to the activity of darobactin A was determined. The amount of darobactin derivative present in the extract test sample was calculated based on the area under the curve (AUC) of the mass peak as automatically calculated by software DataAnalysis 4.2 and extracted from the LC-MS measurements of each of the crude extract samples. Using the AUC of the mass peak of darobactin A (DA) as calibration standard, i.e. ratio between AUC of darobactin derivative and darobactin A was correlated to amount of compound present in sample. The results of activities of tested darobactin derivatives against exemplified Gram-negative bacteria as compared to the activity of darobactin A are summarized in Table 5 below.

[2] = system: Acinetobacter baumannii DSM-30008; experiment: as above; assay type: cell-based; conditions: crude extract, relative to darobactin A, amount from LC-MS AUC
Description: as §1, §2

[3] = system: Pseudomonas aeruginosa PA01; experiment: as above; assay type: cell-based; conditions: crude extract, relative to darobactin A, amount from LC-MS AUC
Description: as §1, §2

[4] = system: Klebsiella pneumoniae DSM-30104; experiment: as above; assay type: cell-based; conditions: crude extract, relative to darobactin A, amount from LC-MS AUC
Description: as §1, §2

K. pneumoniae DSM-30104 = experiment: Microbroth dilution of crude extracts, concentration factor at full growth inhibition; assay type: cell-based, Klebsiella pneumoniae
Description: (§3) Crude extracts containing the respective darobactin derivatives obtained by the heterologous expression and separation protocol described above were tested for their activity against exemplified Gram-negative bacteria in standard microbroth dilution assays. The presence of darobactin derivatives in the crude extracts was verified by checking the expected masses via LC-HRMS.
(§4) All microorganisms were handled according to standard procedures as recommended by the depositor. Strains were obtained from the German Collection of Cell Cultures and Microorganisms (Klebsiella pneumoniae DSM-30104, Acinetobacter baumannii DSM-30007 and A. baumannii DSM-30008), the American Type Culture Collection (Escherichia coli ATCC-25922), or were part of our internal strain collection (Pseudomonas aeruginosa PAO1, PA14 and PA14ΔmexAB).
(§5) For the MIC assay, 10 μl of crude extract of each test sample, diluted in 50% methanol/H2O, was added each into a well of the first row of a 96 well plate. […] Then, 75 μl of cation-adjusted Mueller-Hinton broth medium was added to each well and the samples contained in the first row were mixed with the 75 μl medium/extract mixture. Starting from the 150 μl mixtures in the first row, serial dilutions of the respective mixtures were prepared in corresponding subjacent rows of the 96 well plate. […]

A. baumannii DSM-30008 = experiment: as above; assay type: cell-based, Acinetobacter baumannii; conditions: A. baumannii DMS-30008
Description: as §3, §4, §5

P. aeruginosa PAO1 = experiment: as above; assay type: cell-based, Pseudomonas aeruginosa
Description: as §3, §4, §5

E. coli ATCC25922 [5] = experiment: as above; assay type: cell-based, Escherichia coli
Description: as §3, §4, §5

[6] = system: A. baumannii 045 (OXA-58); experiment: MIC against clinical isolates of A. baumannii; assay type: cell-based, Acinetobacter baumannii; conditions: clinical isolate A. baumannii 045 (OXA-58)
[7] = system: A. baumannii 046 (OXA-40); experiment: MIC against clinical isolates of A. baumannii; assay type: cell-based, Acinetobacter baumannii; conditions: clinical isolate A. baumannii 046 (OXA-40)
[8] = system: A. baumannii 054 (OXA-51-ISAba1); experiment: MIC against clinical isolates of A. baumannii; assay type: cell-based, Acinetobacter baumannii; conditions: clinical isolate A. baumannii 054 (OXA-51-ISAba1)
[9] = system: A. baumannii 038 (OXA-23); experiment: MIC against clinical isolates of A. baumannii; assay type: cell-based, Acinetobacter baumannii; conditions: clinical isolate A. baumannii 038 (OXA-23)
[10] = system: A. baumannii 047 (OXA-235); experiment: MIC against clinical isolates of A. baumannii; assay type: cell-based, Acinetobacter baumannii; conditions: clinical isolate A. baumannii 047 (OXA-235)
A. baumannii 070 (NDM-1) = experiment: MIC against clinical isolates of A. baumannii; assay type: cell-based, Acinetobacter baumannii; conditions: clinical isolate A. baumannii 070 (NDM-1)

`NCCC[C@H]1c2ccc3c(c[nH]c3c2)[C@H]2Oc3cccc4c(c[nH]c34)C[C@H](N)C(=O)N[C@@H](CC(N)=O)C(=O)N[C@@H]2C(=O)N[C@@H](CO)C(=O)N[C@@H]1C(=O)N[C@@H](CO)C(=O)N[C@@H](Cc1ccc(O)cc1)C(=O)O` [Darobactin 10] was tested, and the Relative activity (E. coli ATCC25922 [1]) was 0, the Relative activity [2] was 0 and the Relative activity [3] was “+”. The Relative activity [4] was 0.

With `NCCC[C@H]1c2ccc3c(c[nH]c3c2)[C@H]2Oc3cccc4c(c[nH]c34)C[C@H](N)C(=O)N[C@@H](CCC(N)=O)C(=O)N[C@@H]2C(=O)N[C@@H](CO)C(=O)N[C@@H]1C(=O)N[C@@H](CO)C(=O)N[C@@H](Cc1ccccc1)C(=O)O` [Darobactin 11] the Relative activity (E. coli ATCC25922 [1]) was “+++++”, the Relative activity [2] was “+++++” and the Relative activity [3] was “+++++”. For the same compound, the Relative activity [4] was “++++”.

`C[C@@H]1NC(=O)[C@H]2NC(=O)[C@H](CC(N)=O)NC(=O)[C@@H](N)Cc3c[nH]c4c(cccc34)O[C@@H]2c2c[nH]c3cc(ccc23)[C@H](CCCN)[C@@H](C(=O)N[C@@H](CO)C(=O)N[C@@H](Cc2ccccc2)C(=O)O)NC1=O` [Darobactin 14] was tested, and the Relative activity (E. coli ATCC25922 [1]) was “+++”, the Relative activity [2] was “++” and the Relative activity [3] was “++”. For the same compound, the Relative activity [4] was “+++”.

With `C[C@H](NC(=O)[C@H]1NC(=O)[C@H](CO)NC(=O)[C@H]2NC(=O)[C@H](CC(N)=O)NC(=O)[C@@H](N)Cc3c[nH]c4c(cccc34)O[C@@H]2c2c[nH]c3cc(ccc23)[C@@H]1CCCN)C(=O)N[C@@H](Cc1ccccc1)C(=O)O` [Darobactin 16] the Relative activity (E. coli ATCC25922 [1]) was “+”, the Relative activity [2] was “+” and the Relative activity [3] was “+”. For the same compound, the Relative activity [4] was “+”.

`C[C@@H]1NC(=O)[C@H]2NC(=O)[C@H](CC(N)=O)NC(=O)[C@@H](N)Cc3c[nH]c4c(cccc34)O[C@@H]2c2c[nH]c3cc(ccc23)[C@H](CCCN)[C@@H](C(=O)N[C@@H](CO)C(=O)N[C@@H](Cc2c[nH]c3ccccc23)C(=O)O)NC1=O` [Darobactin 30] was tested, and the “Concentration factor of crude extract at which full growth inhibition is observed” value (K. pneumoniae DSM-30104) was 1.67x, the “Concentration factor of crude extract at which full growth inhibition is observed” value (A. baumannii DSM-30008) was 0.83x and the “Concentration factor of crude extract at which full growth inhibition is observed” value (P. aeruginosa PAO1) was 0.11x. For the same compound, the “Concentration factor of crude extract at which full growth inhibition is observed” value (E. coli ATCC25922 [5]) was 0.83x.

`C[C@@H](O)[C@@H]1NC(=O)[C@H]2NC(=O)[C@H](CC(N)=O)NC(=O)[C@@H](N)Cc3c[nH]c4c(cccc34)O[C@@H]2c2c[nH]c3cc(ccc23)C(CCNC(=N)N)[C@@H](C(=O)N[C@@H](CCCNC(=N)N)C(=O)N[C@@H](Cc2c[nH]c3ccccc23)C(=O)O)NC1=O` (stereo partly shown) [Darobactin 39] was tested, and the “Concentration factor of crude extract at which full growth inhibition is observed” value (K. pneumoniae DSM-30104) was 0.42x, the “Concentration factor of crude extract at which full growth inhibition is observed” value (A. baumannii DSM-30008) was 0.05x and the “Concentration factor of crude extract at which full growth inhibition is observed” value (P. aeruginosa PAO1) was 0.11x. The “Concentration factor of crude extract at which full growth inhibition is observed” value (E. coli ATCC25922 [5]) was 0.42x.

In the case of `N=C(N)NCC[C@H]1c2ccc3c(c[nH]c3c2)[C@H]2Oc3cccc4c(c[nH]c34)C[C@H](N)C(=O)N[C@@H](CC(N)=O)C(=O)N[C@@H]2C(=O)N[C@@H](CO)C(=O)N[C@@H]1C(=O)N[C@@H](CO)C(=O)N[C@@H](Cc1ccccc1)C(=O)O` [Darobactin D], the Relative activity (E. coli ATCC25922 [1]) is reported as “++++”, the Relative activity [2] is reported as “++++” and the Relative activity [3] is reported as “++++”. It also gave a Relative activity [4] of 0.

`CCCCCCC1OC(=O)CNC(=O)C(C(C)O)NC(=O)C(CO)NC(=O)C(C(C)CC)NC(=O)C(CC(C)C)N(C)C(=O)C1C` (stereo not shown) [Globomycin] gave an MIC [6] of 64 µg/mL (≈ 97.6 µM), an MIC [7] of 32 µg/mL (≈ 48.8 µM) and an MIC [8] greater than 64 µg/mL. It also gave an MIC [9] of 32 µg/mL (≈ 48.8 µM), an MIC [10] of 64 µg/mL (≈ 97.6 µM) and an MIC (A. baumannii 070 (NDM-1)) of 16 µg/mL (≈ 24.4 µM).
